In brackets after ≈: the same amount, converted by molar mass.
Columns and labels:
[1] = target: T1, Prostaglandin G/H synthase 1 (Homo sapiens, UniProt P23219); assay: Inhibition of recombinant human COX-1 using arachidonic acid as substrate by ELISA
[2] = target: T2, Prostaglandin G/H synthase 2 (Homo sapiens, UniProt P35354); assay: Inhibition of recombinant human COX-2 using arachidonic acid as substrate by ELISA
T2 sequence (P35354 whole entry): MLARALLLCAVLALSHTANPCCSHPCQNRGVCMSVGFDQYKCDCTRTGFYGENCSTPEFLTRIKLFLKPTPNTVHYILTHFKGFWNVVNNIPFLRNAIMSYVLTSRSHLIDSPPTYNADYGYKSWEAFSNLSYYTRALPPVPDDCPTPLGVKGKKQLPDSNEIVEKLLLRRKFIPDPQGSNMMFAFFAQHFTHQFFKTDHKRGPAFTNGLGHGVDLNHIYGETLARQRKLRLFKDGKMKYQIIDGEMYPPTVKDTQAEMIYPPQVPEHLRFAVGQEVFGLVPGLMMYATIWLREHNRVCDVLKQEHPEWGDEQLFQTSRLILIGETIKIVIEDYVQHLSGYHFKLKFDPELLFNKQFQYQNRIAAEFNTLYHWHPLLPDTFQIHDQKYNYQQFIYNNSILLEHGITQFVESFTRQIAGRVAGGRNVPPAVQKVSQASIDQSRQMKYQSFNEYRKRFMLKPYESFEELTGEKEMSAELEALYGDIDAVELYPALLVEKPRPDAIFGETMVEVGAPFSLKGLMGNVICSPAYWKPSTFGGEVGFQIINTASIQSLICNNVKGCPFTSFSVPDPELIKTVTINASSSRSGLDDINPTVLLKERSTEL

[3] = target: T3, Polyunsaturated fatty acid 5-lipoxygenase (Homo sapiens, UniProt P09917); assay: Inhibition of 5-LOX (unknown origin) by fluorometric analysis
T3 sequence (P09917 whole entry): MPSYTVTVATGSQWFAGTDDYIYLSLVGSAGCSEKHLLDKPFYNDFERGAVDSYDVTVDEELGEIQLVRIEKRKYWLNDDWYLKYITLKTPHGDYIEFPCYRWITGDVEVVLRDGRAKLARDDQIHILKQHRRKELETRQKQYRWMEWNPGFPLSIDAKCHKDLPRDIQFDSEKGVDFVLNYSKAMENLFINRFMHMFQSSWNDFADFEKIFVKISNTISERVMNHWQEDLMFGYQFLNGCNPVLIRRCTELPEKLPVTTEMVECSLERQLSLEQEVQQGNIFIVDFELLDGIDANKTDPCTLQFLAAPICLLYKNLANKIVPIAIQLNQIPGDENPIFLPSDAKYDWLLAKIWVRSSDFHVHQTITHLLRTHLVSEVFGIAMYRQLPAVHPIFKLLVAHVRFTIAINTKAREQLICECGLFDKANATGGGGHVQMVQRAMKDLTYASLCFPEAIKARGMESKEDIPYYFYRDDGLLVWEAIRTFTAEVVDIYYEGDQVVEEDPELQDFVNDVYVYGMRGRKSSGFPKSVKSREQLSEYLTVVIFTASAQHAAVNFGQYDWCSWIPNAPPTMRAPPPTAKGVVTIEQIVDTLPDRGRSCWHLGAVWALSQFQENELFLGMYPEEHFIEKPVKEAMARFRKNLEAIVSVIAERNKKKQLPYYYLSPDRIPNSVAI

[4] = target: T3, Polyunsaturated fatty acid 5-lipoxygenase; assay: Inhibition of 5-LOX (unknown origin)
[5] = target: T2, Prostaglandin G/H synthase 2; assay: Inhibition of COX-2 (unknown origin) by 2,7-dichlorofluorescein dye based spectrophotometric method
[6] = target: T3, Polyunsaturated fatty acid 5-lipoxygenase; assay: Inhibition of 5-LOX (unknown origin) by spectrophotometric method
[7] = Antioxidant activity assessed as DPPH radical scavenging activity by spectrophotometric analysis; assay type: functional
[8] = target: T2, Prostaglandin G/H synthase 2; assay: Inhibition of COX-2 (unknown origin)
[9] = target: T2, Prostaglandin G/H synthase 2; assay: Inhibition of recombinant human COX-2 using arachidonic acid as substrate preincubated for 10 mins followed by substrate addition and measured after 2 mins by Ellman's reagent based ELISA
[10] = target: T3, Polyunsaturated fatty acid 5-lipoxygenase; assay: Inhibition of recombinant human 5-LOX using arachidonic acid as substrate incubated for 10 mins by spectrophotometric analysis
[11] = target: T2, Prostaglandin G/H synthase 2; assay: Inhibition of COX-2 (unknown origin) using arachidonic acid as substrate preincubated for 5 mins followed by substrate addition by colorimetric assay
[12] = target: T3, Polyunsaturated fatty acid 5-lipoxygenase; assay: Inhibition of 5-LOX (unknown origin) by colorimetric assay
Rattus norvegicus [13] = assay: Antiinflammatory activity in Wistar rat carragenan-induced paw edema model assessed as reduction in edema thickness at 50 mg/kg, po and measured after 2 hrs; assay type: functional; set-up: scale not given: the % may be the effect or the level left
[14] = Inhibition of soybean 5-LOX using linoleic acid as substrate by spectrophotometric analysis; set-up: species or system Glycine max
[15] = target: T2, Prostaglandin G/H synthase 2; assay: Inhibition of COX-2 (unknown origin) using arachidonic acid as substrate preincubated for 15 mins followed by substrate addition by colorimetric assay
[16] = target: T2, Prostaglandin G/H synthase 2; assay: Inhibition of COX-2 (unknown origin) using arachidonic acid as substrate preincubated for 5 mins followed by substrate addition and measured after 20 mins by colorimetric assay
[17] = Inhibition of soybean 5-LOX using arachidonic acid as substrate preincubated for 5 mins followed by substrate addition and measured after 5 mins by microplate spectrophotometric analysis; set-up: species or system Glycine max
DU-145 = assay: Antiproliferative activity against human DU-145 cells assessed as reduction in cell viability incubated for 48 hrs by MTT assay; assay type: functional, cell-based; conditions: DU-145, 48 h
Rattus norvegicus [18] = assay: Antiinflammatory activity in carragenan-induced paw edema rat model assessed as reduction in edema thickness at 28 microg/kg, ip and measured after 4 hrs by digital Vernier caliper analysis; assay type: functional; set-up: scale not given: the % may be the effect or the level left; conditions: dose 28 µg/kg
[19] = target: T2, Prostaglandin G/H synthase 2; assay: Inhibition of recombinant human COX-2 by enzyme immune assay
[20] = Selectivity index, ratio IC50 for inhibition of ovine COX-1 to IC50 for inhibition of recombinant human COX-2
[21] = target: T3, Polyunsaturated fatty acid 5-lipoxygenase; assay: Inhibition of 5-LOX (unknown origin) by enzyme immune assay
[22] = target: T1, Prostaglandin G/H synthase 1; assay: Inhibition of human COX-1 using arachidonic acid as substrate preincubated for 10 mins followed by substrate addition and measured after 2 mins by ELISA
[23] = Inhibition of potato 5-LOX using linoleic acid as substrate preincubated for 5 mins followed by substrate addition and measured after 5 mins by spectrophotometric assay; set-up: species or system Solanum tuberosum
Homo sapiens = species: Homo sapiens; assay: Selectivity index, ratio of IC50 for inhibition of human COX1 to IC50 for inhibition of human COX2
Rattus norvegicus [24] = assay: Antiinflammatory activity in Wistar rat assessed as reduction in carragenan-induced paw edema at 10 mg/kg, po for 7 days followed by carrageenan stimulation and measured upto 6 hrs by vernier caliper method; assay type: functional; set-up: scale not given: the % may be the effect or the level left; conditions: time 7 day

T1 sequence (P23219 whole entry): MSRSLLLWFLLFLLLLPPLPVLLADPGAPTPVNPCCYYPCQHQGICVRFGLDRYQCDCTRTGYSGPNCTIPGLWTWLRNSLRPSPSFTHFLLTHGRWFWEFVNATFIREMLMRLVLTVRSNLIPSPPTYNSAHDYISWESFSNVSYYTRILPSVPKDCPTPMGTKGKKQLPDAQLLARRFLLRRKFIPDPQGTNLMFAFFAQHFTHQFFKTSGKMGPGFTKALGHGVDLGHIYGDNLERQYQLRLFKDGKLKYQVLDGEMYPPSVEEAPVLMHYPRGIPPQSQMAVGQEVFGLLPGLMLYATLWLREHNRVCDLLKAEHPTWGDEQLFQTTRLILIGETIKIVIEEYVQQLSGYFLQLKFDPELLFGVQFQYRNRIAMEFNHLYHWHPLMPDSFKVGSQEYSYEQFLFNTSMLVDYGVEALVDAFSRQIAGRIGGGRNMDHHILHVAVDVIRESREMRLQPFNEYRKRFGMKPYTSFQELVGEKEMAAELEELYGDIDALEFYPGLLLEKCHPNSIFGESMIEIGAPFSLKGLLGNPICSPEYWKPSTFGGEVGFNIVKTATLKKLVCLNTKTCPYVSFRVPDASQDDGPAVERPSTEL

Structure (SMILES): COc1cc(/C=c2\c(=O)[nH]n3c(=O)c4ccccc4nc23)cc(OC)c1OC
- IC50 [1]: 0.668 µM
- IC50 [2]: 0.047 µM
- IC50 [3]: 2.3 µM

Structure (SMILES): O=C1N/C(=N\c2nc(-c3ccccc3)cs2)S/C1=C\c1ccc(Cl)cc1
- IC50 [4]: 54 µM

Structure (SMILES): COc1ccc(/C=c2\c(=O)[nH]n3c(=O)c4ccccc4nc23)cc1OC
- IC50 [1]: 0.684 µM
- IC50 [2]: 0.284 µM
- IC50 [3]: 1 µM

Structure (SMILES): CC[C@H](CO)[C@@](C)(O)C/C=C/C(C)(C)OC(=O)C[C@]1(C)C=CC[C@@H](C)[C@@]12C=CC(C)(CC)O2 (stereo partly specified)
- IC50 [5]: 1400 µM
- IC50 [6]: 1620 µM
- IC50 [7]: 540 µg/mL (≈ 1170 µM)

Structure (SMILES): O=C(O)c1ccc(O)c(O)c1 [PROTOCATECHUIC ACID]
- IC50 [8]: 25.4 µM

Structure (SMILES): C=C1CCCC2C1(C)CCC(C)C2(C)CCC1=CC(=O)OC1O (stereo unspecified)
- IC50 [9]: 8.49 µM
- IC50 [10]: 12.7 µM

Structure (SMILES): CC1=NN(c2ccccc2C(=O)O)C(=O)/C1=N/Nc1ccc(S(N)(=O)=O)cc1
- IC50 [11]: 0.72 µM
- IC50 [12]: 0.52 µM
- Activity (Rattus norvegicus [13]): 72.72%

Structure (SMILES): CC1=NN(c2ccc(S(N)(=O)=O)cc2)C(=O)/C1=N/Nc1ccc(C(=O)O)cc1
- IC50 [11]: 0.77 µM
- IC50 [12]: 0.53 µM
- Activity (Rattus norvegicus [13]): 72.72%

Structure (SMILES): C=C1C(O)CCC2C1(C)CCC(C)C2(C)CCC1=CC(=O)OC1O (stereo unspecified)
- IC50 [9]: 12.8 µM
- IC50 [10]: 16.5 µM

Structure (SMILES): NC(=O)c1ccc(-c2nc(CSc3nc4ccccc4s3)no2)cc1
- IC50 [14]: 6.4 µM
- IC50 [15]: 6.8 µM

Structure (SMILES): CC1=NN(c2ccc(S(N)(=O)=O)cc2)C(=O)/C1=N/Nc1ccc(S(N)(=O)=O)cc1
- IC50 [11]: 0.66 µM
- IC50 [12]: 0.57 µM

Structure (SMILES): COc1cc(C(=O)O)cc(O)c1O
- IC50 [8]: 23.4 µM

Structure (SMILES): CC(=O)OC[C@@H]1O[C@@H](n2cc(CNC(=O)C(=O)c3cn(S(=O)(=O)c4ccc(C)cc4)c4ccccc34)nn2)[C@H](OC(C)=O)[C@@H](OC(C)=O)[C@H]1OC(C)=O
- IC50 [16]: 0.12 µM
- IC50 [17]: 7.46 µM
- IC50 (DU-145): 18.5 µM

Structure (SMILES): O=C(NC1CCCCC1)c1cc(NCc2cc(O)ccc2O)ccc1O
- Activity (Rattus norvegicus [18]): 114.12%
- IC50 [19]: 0.1 µM

Structure (SMILES): COc1cc([C@@H]2c3cc4c(cc3[C@@H](O[C@@H]3O[C@@H]5CO[C@@H](C)O[C@H]5[C@H](O)[C@H]3O)[C@H]3COC(=O)[C@H]23)OCO4)cc(OC)c1O [ETOPOSIDE]
- IC50 (DU-145): 9.8 µM

Structure (SMILES): Nc1ccc(O)c(C(=O)NC2CCCCC2)c1
- Activity (Rattus norvegicus [18]): 102%

Structure (SMILES): CCCCC(=O)OCC[C@@H]1CC=C[C@@H]2[C@H]1C(=O)O[C@@]2(C)CO
- IC50 [5]: 2380 µM
- IC50 [6]: 2580 µM

Structure (SMILES): COc1ccc(-c2nc(-c3cn(C)c4ccccc34)c(C(=O)c3ccc(C#N)cc3)s2)cc1OC
- IC50 [8]: 2.1 µM
- IC50 [4]: 1.37 µM

Structure (SMILES): CCCCNC(=O)c1cc(NCc2cc(O)ccc2O)ccc1O
- Activity (Rattus norvegicus [18]): 40.05%
- IC50 [19]: 0.1 µM
- Ratio IC50 [20]: 135
- IC50 [21]: 10.5 µM

Structure (SMILES): CCC[C@H](O)CCOC(=O)CC[C@]1(C)C=CC[C@@H](C)[C@@]12C=CC(C)(CC)O2 (stereo partly specified)
- IC50 [5]: 1850 µM
- IC50 [6]: 2030 µM
- IC50 [7]: 590 µg/mL (≈ 1560 µM)

Structure (SMILES): N=C1/C(=N\Nc2ccc(S(N)(=O)=O)cc2)C(N)=NN1c1ccccc1C(=O)O
- IC50 [11]: 1.12 µM
- IC50 [12]: 2.73 µM
- Activity (Rattus norvegicus [13]): 15%

Structure (SMILES): Cc1ccc(-c2nc(N(c3ccccc3)c3ccccc3)sc2C(=O)c2cccs2)cc1
- IC50 [22]: 5.55 µM
- IC50 [23]: 0.38 µM
- Ratio IC50 (Homo sapiens): 61.7
- Activity (Rattus norvegicus [24]): 60.82%
